Assay results: article PMC4759042, “The D‐amino acid transport by the invertebrate SLC6 transporters KAAT1 and CAATCH1 from Manduca sexta” (Physiological Reports, 2016)

Legend:
CAATCH1 (msCAATCH1) [1] = target: T1, CAATCH1 (msCAATCH1) (Manduca sexta, UniProt Q9U5A9); test: two-electrode voltage clamp in oocytes, block of leak current; format: cell-based; settings: NaCl 98 mmol/L, pH 7.6, -60 mV; blocker, not transported
T1 construct: full-length transporter from cRNA in Xenopus laevis oocytes
T1 sequence (Q9U5A9 1-633): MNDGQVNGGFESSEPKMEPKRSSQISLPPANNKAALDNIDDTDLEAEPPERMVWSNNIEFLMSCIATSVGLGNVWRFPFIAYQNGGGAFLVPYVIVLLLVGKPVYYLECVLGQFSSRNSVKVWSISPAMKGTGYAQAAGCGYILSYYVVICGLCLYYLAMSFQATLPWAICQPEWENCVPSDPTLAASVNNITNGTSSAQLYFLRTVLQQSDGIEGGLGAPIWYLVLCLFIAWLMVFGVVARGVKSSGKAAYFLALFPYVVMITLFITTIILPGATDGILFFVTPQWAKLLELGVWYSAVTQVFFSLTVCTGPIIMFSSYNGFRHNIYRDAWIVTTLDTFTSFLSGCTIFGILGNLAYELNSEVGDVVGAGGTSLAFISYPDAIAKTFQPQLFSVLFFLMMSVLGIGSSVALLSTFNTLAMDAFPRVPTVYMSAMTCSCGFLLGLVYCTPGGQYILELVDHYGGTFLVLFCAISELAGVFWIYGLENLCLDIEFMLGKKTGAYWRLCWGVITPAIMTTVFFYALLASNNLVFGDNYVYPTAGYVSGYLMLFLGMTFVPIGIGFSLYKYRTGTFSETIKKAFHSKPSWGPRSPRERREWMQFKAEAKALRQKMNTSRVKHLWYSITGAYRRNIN

CAATCH1 (msCAATCH1) [2] = target: T1, CAATCH1 (msCAATCH1); test: two-electrode voltage clamp in oocytes, transport current; format: cell-based; settings: NaCl 98 mmol/L, pH 7.6, -60 mV
KAAT1 (msKAAT1) = target: T2, KAAT1 (msKAAT1) (Manduca sexta, UniProt O76188); test: as above; format: cell-based; settings: NaCl 98 mmol/L, pH 7.6, -60 mV; main transport site, up to 300 μmol/L
T2 construct: full-length transporter from cRNA in Xenopus laevis oocytes
T2 sequence (O76188 1-634): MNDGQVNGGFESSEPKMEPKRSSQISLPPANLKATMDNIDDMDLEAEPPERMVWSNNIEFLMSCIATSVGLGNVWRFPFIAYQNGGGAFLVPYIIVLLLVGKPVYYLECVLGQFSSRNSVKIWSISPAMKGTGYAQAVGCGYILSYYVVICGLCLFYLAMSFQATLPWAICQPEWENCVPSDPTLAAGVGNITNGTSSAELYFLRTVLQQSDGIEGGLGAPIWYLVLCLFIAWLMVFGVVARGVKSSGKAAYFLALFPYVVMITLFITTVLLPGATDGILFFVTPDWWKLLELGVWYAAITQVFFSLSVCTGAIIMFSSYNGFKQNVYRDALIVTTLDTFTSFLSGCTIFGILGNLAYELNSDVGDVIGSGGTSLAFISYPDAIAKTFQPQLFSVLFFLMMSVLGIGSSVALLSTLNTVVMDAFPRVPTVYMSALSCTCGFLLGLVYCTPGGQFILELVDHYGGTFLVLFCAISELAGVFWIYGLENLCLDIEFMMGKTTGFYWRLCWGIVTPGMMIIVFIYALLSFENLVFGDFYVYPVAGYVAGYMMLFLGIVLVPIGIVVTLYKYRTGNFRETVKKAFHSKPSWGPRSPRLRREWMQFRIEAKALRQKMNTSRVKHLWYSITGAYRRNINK

[3] = substrate: CC(C)C[C@H](N)C(=O)O; test: as above; format: cell-based, Manduca sexta; settings: NaCl 98 mmol/L, pH 7.6, -60 mV, 20-25 °C

## CC(C)C[C@H](N)C(=O)O [L‐leucine]
CAATCH1 (msCAATCH1) [1]
  two-electrode voltage clamp in oocytes, block of leak current: L‐leucine produces an apparent outward current, actually representing a block of the leak current

## CC(C)C[C@@H](N)C(=O)O [D‐leucine]
CAATCH1 (msCAATCH1) [2]; 30-1000 μmol/L
  two-electrode voltage clamp in oocytes, transport current: The amplitude of the response to D‐leucine increases with the substrate concentration
KAAT1 (msKAAT1)
  two-electrode voltage clamp in oocytes, transport current: increasing concentrations of D‐leucine to the oocyte caused progressively larger transport currents

## N[C@H](CO)C(=O)O [D‐serine]
CAATCH1 (msCAATCH1) [2]
  two-electrode voltage clamp in oocytes, transport current: the D‐enantiomer gives rise to a large current

## N[C@@H](CO)C(=O)O [L‐serine]
CAATCH1 (msCAATCH1) [1]
  two-electrode voltage clamp in oocytes, block of leak current: has a blocking effect similar to that of L‐leucine

B1: KAAT1 (msKAAT1) (Manduca sexta) (protein)
chain: T2 sequence (O76188 1-634)
notes: full-length transporter from cRNA in Xenopus laevis oocytes
[3]
  K0.5: 10 µmol/L
